In one series the test system is P. gingivalis ATCC 33277. Kind of series: Monospecies bacterial biofilm inhibition, static peg assay (anaerobic, 72 h). It counts as cell-based. To be noted: Porphyromonas gingivalis, ATCC33277, P. gingivalis ATCC 33277, 37°C. As for the experimental part: (§1) A static peg assay, described previously ([27], [74]), was used for bacterial biofilm formation. The Calgary biofilm device consists of a platform carrying 96 polystyrene pegs (Nunc no. 445497) that fits as a microtiter plate lid, with 1 peg hanging into each microtiter plate well (Nunc no. 269789). Twofold serial dilutions of the compounds (dissolved in 100% dimethyl sulfoxide [DMSO] or ethanol) in 100 μl liquid broth (TSB diluted 1/20) per well were prepared in the microtiter plate in duplicate or triplicate with a maximum concentration of 1,600 μM and a minimum concentration of 0.8 μM. Subsequently, an overnight culture of S. Typhimurium ATCC 14028, P. aeruginosa PA14, E. coli TG1, S. epidermidis, S. aureus SH1000, or S. aureus ATCC 6538 (all grown in LB) was diluted 1:100 into TSB diluted 1/20 (or TSB for S. epidermidis, S. aureus SH1000, and S. aureus ATCC 6538), whereas overnight cultures of S. liquefaciens MG44 and B. cepacia LMG1222T were diluted 1:50 into TSB diluted 1/20. P. gingivalis ATCC 33277 cultures were diluted in TSB diluted 1/20 to have a final concentration of 1 × 10^8 cells/ml. Next, 100 μl was added to each well of the microtiter plate, resulting in a total volume of 200 μl medium per well (final concentration range of compounds, 800 μM [2% DMSO or ethanol] to 0.4 μM [0.001% DMSO or ethanol]). In the next step, the pegged lid was placed on the microtiter plate and the plate was incubated for 24 h or 48 h at 25°C or 37°C without shaking. At 37°C, the plates were placed in a sealed container with wet towels on the bottom to prevent evaporation of the growth medium. Biofilms of P. gingivalis ATCC 33277 were grown anaerobically at 37°C for 72 h. During this incubation period, biofilms were formed on the surface of the pegs. After incubation, the optical density at 600 nm (OD600) for the planktonic cells in the microtiter plate was measured using a Synergy MX multimode reader (BioTek, Winooski, VT). This gives a first indication of the effect of the compounds on planktonic growth. For quantification of biofilm formation, the pegs were washed once in 200 μl PBS. The remaining attached bacteria were stained for 30 min with 200 μl 0.1% (wt/vol) crystal violet in an isopropanol-methanol-PBS solution (1:1:18, vol/vol). Excess stain was rinsed off by placing the pegs in a 96-well plate filled with 200 μl distilled water per well. After air drying of the pegs (30 min), the dye bound to the adherent biofilm was extracted with 30% glacial acetic acid (200 μl per well of a 96-well plate). The optical density at 570 nm (OD570) of each well was measured using a Synergy MX multimode reader (BioTek, Winooski, VT). The concentration of each compound needed to inhibit biofilm formation by 50% (BIC50) and the concentration of each compound needed to inhibit planktonic growth by 50% (IC50) were determined from the concentration gradient by using nonlinear curve fitting (GraphPad Prism software, version 5; GraphPad Software, Inc., La Jolla, CA). In the same assay, the effect on planktonic growth was evaluated. The activity was considered biofilm specific if the BIC50 was at least two times lower than the IC50. Data represent the means from at least 3 technical repeats with the corresponding 95% confidence intervals (provided in the supplemental material).

A further series concerns B. cepacia LMG1222T. Kind of series: Monospecies bacterial biofilm inhibition, static peg assay. It counts as cell-based, Burkholderia cepacia. The conditions noted are these: Burkholderia cepacia, 25°C. The method, then: as §1
The subject of series [1] is osteoblasts (OB). Kind of series: Mammalian cell viability assay, trypan blue staining. It counts as cell-based. The conditions noted are these: 12.5 μM, 6 days of exposure. The method, then:
(§2) The viability of two human primary cell types, namely, osteoblasts (OB) and bone marrow-derived mesenchymal stem cells (MSC), was tested according to the ISO 10993-5 standard, as previously described ([76]). Briefly, cells were seeded in 96-well tissue culture test plates (TPP; Trasadingen, Switzerland) at 5 × 10^3 cells/cm^2 in cell culture medium (advanced Dulbecco modified Eagle's medium [DMEM]) supplemented with 10% serum, 1× GlutaMAX, and 0.05 mg/ml gentamicin and were allowed to attach overnight. On the next day, the cells were exposed to (i) cell culture medium and medium with the corresponding control (0.5% ethanol or DMSO; negative controls), (ii) medium with 0.05% phenol (cytotoxic control), and (iii) medium with compounds (12.5 μM) and incubated for 2 h, 48 h, and 6 days (8 repeats for each condition). At each time point, the numbers of viable and dead cells were determined directly by trypan blue staining and indirectly by measuring metabolic activity with 3-(4,5-dimethylthiazol-2-yl)-2,5-diphenyltetrazolium bromide (MTT) staining.
The medium was removed from the wells, 1/3 trypan blue in DMEM was added to the cells, and the cells were incubated for 3 min, after which the trypan blue was removed and DMEM was added to the wells. In each of four wells, two microscopy fields were counted for viable (transparent) and dead (blue) cells.

In series [2] the test system is osteoblasts (OB). Kind of series: Osteogenic differentiation, calcium and DNA assay. It counts as cell-based, human. The conditions noted are these: 12.5 μM; for calcium deposition of OB (normalized by DNA): osteogenic medium, versus solvent control. As for the experimental part:
The effects of the substances on the osteogenic differentiation potential were assessed as previously described ([76]). Only the substances that allowed survival of the cells for more than 3 weeks, which is the time needed for mature osteogenic differentiation, were tested. Briefly, osteoblasts and bone marrow-derived mesenchymal stem cells were cultured in a positive solvent control (osteogenic medium with 0.5% DMSO or ethanol background), a negative control (medium without osteogenic supplements), and treated samples (osteogenic medium, 0.5% DMSO or ethanol background, and 12.5 μM test compound) with four repeats per condition. The cells in the mesenchymal stem cell and osteoblast cultures were harvested after 3 or 5 weeks, respectively, for the calcium and DNA assay.
The calcium deposition of osteoblasts and mesenchymal stem cells was measured with the calcium CPC LiquiColor test (Stanbio Laboratory, Boerne, TX) as previously described ([76]). Briefly, cell cultures were extracted with 5% trichloroacetic acid (500 μl per sample), o-cresolphthalein complex was added, and the calcium content was determined spectrophotometrically at 550 nm. The DNA content was determined as previously described ([76]). DNA values were used to normalize the calcium content. Four wells per condition were examined, and two samples from each well were taken for each assay.

Series [3] deals with bone marrow-derived mesenchymal stem cells (MSC). Kind of series: Metabolic activity, MTT staining. It is filed as cell-based. To be noted: 12.5 μM, 6 days of treatment. The method, then: as §2
(§3) The medium was removed from the wells, and 100 μl of medium supplemented with 10% serum and 0.5 mg/ml MTT was added to the cells. The cells were incubated overnight at 37°C in 5% CO2. On the next day, the medium with MTT was removed and 100 μl acidic isopropanol was added. The cells were then centrifuged at 2,300 × g, and 50 μl of the supernatant was transferred to a new 96-well plate. The absorbance at 570 nm was measured, and the background at 660 nm was measured. Four wells per condition were examined.

The test system of series [4] is osteoblasts (OB). Kind of series: Metabolic activity, MTT staining. It counts as cell-based. To be noted: 12.5 μM, 6 days of treatment. The method, then: as §2, §3
[5] abbreviates: read-out: IC50 (planktonic growth).

The structures appear in SMILES notation. Where two headings read alike, the source gives them in different places.

Take `CCCCCn1c(-c2ccccc2)cnc1N` [Compound 1]: the IC50 in the series with P. gingivalis ATCC 33277 (read-out: BIC50) is 13.2 µM; in the series with P. gingivalis ATCC 33277 (setting [5]) it was 32.1 µM; in the series on B. cepacia LMG1222T (read-out: BIC50) it was roughly 356 µM; in the series on B. cepacia LMG1222T (setting [5]), greater than 400 µM.

As to `CCCCCCCCn1c(-c2ccc(Cl)cc2)cnc1N` [Compound 2], the IC50 is 3.9 µM with P. gingivalis ATCC 33277 (read-out: BIC50), 6 µM in the series on P. gingivalis ATCC 33277 (setting [5]), 145 µM in the series with B. cepacia LMG1222T (read-out: BIC50) and greater than 400 µM with B. cepacia LMG1222T (setting [5]).

As to `CC(C)CNc1ncc(-c2ccc(Cl)cc2)[nH]1` [Compound 3], the IC50 in the series on P. gingivalis ATCC 33277 (read-out: BIC50) is 5.3 µM; in the series on P. gingivalis ATCC 33277 (setting [5]) it was 5.1 µM; in the series on B. cepacia LMG1222T (read-out: BIC50) it was 88.1 µM; in the series on B. cepacia LMG1222T (setting [5]), greater than 400 µM.

Consider `CCCCNc1ncc(-c2ccc(Br)cc2)[nH]1` [Compound 4], for which the IC50 is 3.7 µM with P. gingivalis ATCC 33277 (read-out: BIC50), 8.2 µM with P. gingivalis ATCC 33277 (setting [5]), 189 µM with B. cepacia LMG1222T (read-out: BIC50) and greater than 400 µM with B. cepacia LMG1222T (setting [5]).

On to `Clc1ccc(-c2cnc(NC3CCCC3)[nH]2)cc1` [Compound 5], for which the IC50 with P. gingivalis ATCC 33277 (read-out: BIC50) is 5.7 µM; with P. gingivalis ATCC 33277 (setting [5]), 4 µM; in the series on B. cepacia LMG1222T (read-out: BIC50) it was 331 µM; with B. cepacia LMG1222T (setting [5]), greater than 400 µM.

As to `Brc1ccc(-c2cnc(NCCn3cc(C4CC4)nn3)[nH]2)cc1` [Compound 6], the IC50 in the series on P. gingivalis ATCC 33277 (read-out: BIC50) is 18.1 µM; in the series on P. gingivalis ATCC 33277 (setting [5]), 19.5 µM; with B. cepacia LMG1222T (read-out: BIC50), greater than 400 µM; in the series with B. cepacia LMG1222T (setting [5]), greater than 400 µM.

As for `CCCCCCCCn1c(-c2ccccc2)cnc1NCC(C)C` [Compound 8a], the “proliferation of OB (trypan blue)” value with osteoblasts (OB) [1] is “slightly reduced”.

Turning to `CCCCCCCCn1c(-c2ccc(Cl)cc2)cnc1NCC(C)C` [Compound 8b], in the series with osteoblasts (OB) [2], the “survival of OB allowed” value is on record as “more than 3 weeks” and the “calcium deposition of OB (normalized by DNA)” value was “induced”.

In the case of `CCCCCCCCn1c(-c2ccc(Br)cc2)cnc1NCC(C)C` [Compound 8c], in the series with osteoblasts (OB) [1], the “proliferation of OB (trypan blue)” value was “increase in proliferation” and the “viability of OB (trypan blue)” value is reported as “very slightly reduced”. Further, the “metabolic activity of MSC (MTT) compared to solvent control” value in series [3] is given as “increased”. Besides, the “metabolic activity of OB (MTT) compared to solvent control” value in the series with osteoblasts (OB) [4] is “increased”. In the series with osteoblasts (OB) [2], the “survival of OB allowed” value was “more than 3 weeks” and the “calcium deposition of OB (normalized by DNA)” value was “induced”.

As to `CCCCCCCCn1c(-c2ccc(Cl)c(Cl)c2)cnc1NCC(C)C` [Compound 8d], the “proliferation of OB (trypan blue)” value with osteoblasts (OB) [1] is on record as “increase in proliferation”. In addition, the “metabolic activity of MSC (MTT) compared to solvent control” value in series [3] is “increased”. For the same compound, the “metabolic activity of OB (MTT) compared to solvent control” value in the series with osteoblasts (OB) [4] is listed as “increased”. Moreover, in the series with osteoblasts (OB) [2], the “survival of OB allowed” value is “more than 3 weeks” and the “calcium deposition of OB (normalized by DNA)” value was “none of the compounds at 12.5 μM negatively affected the calcium deposition”.

Take `CCCCCCCCn1c(-c2ccccc2)cnc1NC1CCCC1` [Compound 8e]: in the series with osteoblasts (OB) [1], the “proliferation of OB (trypan blue)” value is “slightly reduced”.

Consider `CCCCCCCCn1c(-c2ccc(Br)cc2)cnc1NC1CCCC1` [Compound 8g], for which the “proliferation of OB (trypan blue)” value in the series on osteoblasts (OB) [1] is on record as “increase in proliferation”. Moreover, the “metabolic activity of MSC (MTT) compared to solvent control” value in series [3] was “increased”. In the series with osteoblasts (OB) [4], the “metabolic activity of OB (MTT) compared to solvent control” value was “increased”. In the series with osteoblasts (OB) [2], the “survival of OB allowed” value was “more than 3 weeks” and the “calcium deposition of OB (normalized by DNA)” value is “induced”.

Turning to `CCCCCCCCn1c(-c2ccc(Cl)c(Cl)c2)cnc1NC1CCCC1` [Compound 8h], the “proliferation of OB (trypan blue)” value with osteoblasts (OB) [1] was “increase in proliferation”. Besides, in series [3], the “metabolic activity of MSC (MTT) compared to solvent control” value is recorded as “increased”. Also, in the series on osteoblasts (OB) [4], the “metabolic activity of OB (MTT) compared to solvent control” value is on record as “increased”. For the same compound, in the series with osteoblasts (OB) [2], the “survival of OB allowed” value was “more than 3 weeks” and the “calcium deposition of OB (normalized by DNA)” value is reported as “induced”.

The record behind these values is PMC5075052, “Modulation of the Substitution Pattern of 5-Aryl-2-Aminoimidazoles Allows Fine-Tuning of Their Antibiofilm Activity Spectrum and Toxicity” (Antimicrobial Agents and Chemotherapy, 2016).
